Results as given in patent publication US20230277533A1, “THERAPEUTIC COMBINATIONS COMPRISING UBIQUITIN-SPECIFIC-PROCESSING PROTEASE 1 (USP1) INHIBITORS AND POLY (ADP-RIBOSE) POLYMERASE (PARP) INHIBITORS” (KSQ Therapeutics, Inc., priority 2020, published 2023).

Columns and labels:
Assay in all cases: Colony formation (CFU) assay
Type in all cases: cell-based
SNU8 = conditions: SNU8, ovary
How it was run: (§1)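 Plating density is first chosen so colonies stay clearly separated over roughly 14 days. Drug-containing medium (USP1 inhibitor, niraparib or olaparib, or DMSO) goes on at day 8. Staining with crystal violet is quantified by absorbance at 565 nm after acetic acid extraction.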

SUM149PT = conditions: Homo sapiens, breast
How it was run: as §1

ASPC1 = conditions: Homo sapiens; ASPC1, pancreas
How it was run: as §1

DOTC24510 = conditions: Homo sapiens, DoTc2-4510; DOTC24510, cervix
How it was run: as §1

HCC2108 = conditions: HCC2108, lung
How it was run: as §1

PK8 = conditions: PK8, pancreas
How it was run: as §1

SNU213 = conditions: SNU213, pancreas
How it was run: as §1

AN3CA = conditions: Homo sapiens, AN3-CA, uterus
How it was run: as §1

BICR56 = conditions: BICR56, head and neck
How it was run: as §1

HMC18 = conditions: HMC18, breast
How it was run: as §1

KALS1 = conditions: Homo sapiens, KALS-1; KALS1, nervous system
How it was run: as §1

NCIH1838 = conditions: Homo sapiens, NCI-H1838; NCIH1838, lung
How it was run: as §1

UBLC1 = conditions: UBLC1, bladder
How it was run: as §1

SNU489 = conditions: SNU489, nervous system
How it was run: as §1

TCCSUP = conditions: Homo sapiens, TCC-SUP, bladder
How it was run: as §1

U251MG = conditions: Homo sapiens, U-251, nervous system
How it was run: as §1

HBCx6 = conditions: HBCx6, breast
How it was run: as §1

BICR6 = conditions: BICR6, head and neck
How it was run: as §1

COV504 = conditions: COV504, ovary
How it was run: as §1

OE19 = conditions: Homo sapiens; OE19, esophagus
How it was run: as §1

HCC202 = conditions: HCC202, breast
How it was run: as §1

SNU1076 = conditions: SNU1076, head and neck
How it was run: as §1

JIMT1 = conditions: Homo sapiens, JIMT-1; JIMT1, breast
How it was run: as §1

SKMEL24 = conditions: Homo sapiens, SK-MEL-24; SKMEL24, skin
How it was run: as §1

SCC25 = conditions: Homo sapiens, SCC-25; SCC25, head and neck
How it was run: as §1

JHOS2 = conditions: for IC50: JHOS2, ovary; for activity as single agents: JHOS2, up to 300 nM
How it was run: as §1

HS888T = conditions: bone
How it was run: as §1

CFPAC1 = conditions: Homo sapiens, CFPAC-1; CFPAC1, pancreas
How it was run: as §1

HCC1937 = conditions: Homo sapiens; HCC1937, breast
How it was run: as §1

HS739T = conditions: breast
How it was run: as §1

A2058 = conditions: Homo sapiens; A2058, skin
How it was run: as §1

HCC1500 = conditions: HCC1500, breast
How it was run: as §1

HBCx13B = conditions: breast
How it was run: as §1

HBCx8 = conditions: HBCx8, breast
How it was run: as §1

SNU1041 = conditions: SNU1041, head and neck
How it was run: as §1

TE9 = conditions: Homo sapiens, TE-9; TE9, esophagus
How it was run: as §1

HCC1954 = conditions: Homo sapiens; HCC1954, breast
How it was run: as §1

SNUC4 = conditions: Homo sapiens, SNU-C4; SNUC4, colon
How it was run: as §1

Row | Structure (SMILES) | IC50 (SNU8) [nM] | IC50 (SUM149PT) [nM] | IC50 (ASPC1) [nM] | IC50 (DOTC24510) [nM] | IC50 (HCC2108) [nM] | IC50 (PK8) [nM] | IC50 (SNU213) [nM] | IC50 (AN3CA) [nM] | IC50 (BICR56) [nM] | IC50 (HMC18) [nM] | IC50 (KALS1) [nM] | IC50 (NCIH1838) [nM] | IC50 (UBLC1) [nM] | IC50 (SNU489) [nM] | IC50 (TCCSUP) [nM] | IC50 (U251MG) [nM] | IC50 (HBCx6) [nM] | IC50 (BICR6) [nM] | IC50 (COV504) [nM] | IC50 (OE19) [nM] | other results
1 | NC(=O)c1cccc2cn(-c3ccc([C@@H]4CCCNC4)cc3)nc12 [Niraparib, niraparib, reference compound] | > 300 | 135 | > 300 | 30.4 | 95.5 | > 300 | > 300 | 101 | > 300 | > 300 | > 300 | > 300 | > 300 | > 300 | > 300 | > 300 | 30.4 | 149 | 4.17 | > 300 | IC50 (HCC202): 103 nM; IC50 (SNU1076): > 300 nM; IC50 (JIMT1): 25.3 nM; IC50 (SKMEL24): > 300 nM; IC50 (SCC25): > 300 nM; IC50 (JHOS2): > 300 nM; activity as single agents (JHOS2): little to no activity; IC50 (HS888T): > 300 nM; IC50 (CFPAC1): > 300 nM; IC50 (HCC1937): 244 nM; IC50 (HS739T): > 300 nM; IC50 (A2058): 58.4 nM; IC50 (HCC1500): 61.1 nM; IC50 (HBCx13B): > 300 nM; IC50 (HBCx8): 107 nM; IC50 (SNU1041): > 300 nM; IC50 (TE9): > 300 nM; IC50 (HCC1954): > 300 nM; IC50 (SNUC4): > 300 nM
2 | COc1ncnc(C2CC2)c1-c1ncc2cnn(Cc3ccc(-c4nc(C(F)(F)F)cn4C)cc3)c2n1 [Formula II, 6-(4-cyclopropyl-6-methoxypyrimidin-5-yl)-1-(4-(1-methyl-4-(trifluoromethyl)-1H-imidazol-2-yl)benzyl)-1H-pyrazolo[3,4-d]pyrimidine] | > 300 | > 300 | > 300 | > 300 | > 300 | > 300 | > 300 | > 300 | > 300 | > 300 | > 300 | > 300 | > 300 | > 300 | > 300 | > 300 | > 300 | > 300 | 6.63 | > 300 | IC50 (HCC202): > 300 nM; IC50 (SNU1076): > 300 nM; IC50 (JIMT1): 16.6 nM; IC50 (SKMEL24): > 300 nM; IC50 (SCC25): > 300 nM; IC50 (JHOS2): > 300 nM; activity as single agents (JHOS2): little to no activity; IC50 (HS888T): > 300 nM; IC50 (CFPAC1): > 300 nM; IC50 (HCC1937): > 300 nM; IC50 (HS739T): > 300 nM; IC50 (A2058): > 300 nM; IC50 (HCC1500): > 300 nM; IC50 (HBCx13B): > 300 nM; IC50 (HBCx8): > 300 nM; IC50 (SNU1041): > 300 nM; IC50 (TE9): > 300 nM; IC50 (HCC1954): > 300 nM; IC50 (SNUC4): > 300 nM
